# Patent US20050101595A1, “N-containing cycloalkyl-substituted amino-thiazole derivatives and pharmaceutical compositions for inhibiting cell proliferation and methods for their use” (PFIZER INC., priority 2003, published 2005)
# Where a name gives a salt, the structure may show the parent alone. Read-outs that look alike come from different tables or passages of the source.
# Experiments:
# [1] = target: CDK2/Cyclin A (Homo sapiens, UniProt P24941); assay: Inhibition of CDK2/Cyclin A Retinoblastoma Kinase Activity; assay type: biochemical; settings: for inhibition at 0.05 µM: read-out: % inhibition of CDK2 (@ 0.05 μM), compound at 0.05 μM
# Protocol: Cyclin-dependent kinase activity was measured by quantifying the enzyme-catalyzed, time-dependent incorporation of radioactive phosphate from [^32P]ATP or [^33P]ATP into a protein substrate. Unless noted otherwise, assays were performed in 96-well plates in a total volume of 50 μL, in the presence of 10 mM HEPES (N-[2-hydroxyethyl]piperazine-N′-[2-ethanesulfonic acid]) (pH 7.4), 10 mM MgCl2, 25 μM adenosine triphosphate (ATP), 1 mg/mL ovalbumin, 5 μg/mL leupeptin, 1 mM dithiothreitol, 10 mM β-glycerophosphate, 0.1 mM sodium vanadate, 1 mM sodium fluoride, 2.5 mM ethylene glycol-bis(β-aminoethyl ether)-N,N,N′N′-tetraacetic acid (EGTA), 2% (v/v) dimethylsulfoxide, and 0.03-0.4 μCi [^32/33P]ATP per reaction. Reactions were initiated with enzyme, incubated at 30° C., and terminated after 20 minutes by the addition of ethylenediaminetetraacetic acid (EDTA) to 250 mM. The phosphorylated substrate was then captured on a nitrocellulose or phosphocellulose membrane using a 96-well filtration manifold, and unincorporated radioactivity was removed by repeated washing with 0.85% phosphoric acid. Radioactivity was quantified by exposing the dried membranes to a phosphorimager.
# Inhibition was measured relative to control wells that contained all reaction components including 2% (v/v) DMSO but no compound, after subtraction of background radioactivity measured in the absence of enzyme. Apparent Ki values of discrete compounds were measured by assaying enzyme activity in the presence of different inhibitor compound concentrations and subtracting the background radioactivity measured in the absence of enzyme. The kinetic parameters (kcat, Km for ATP) were measured for each enzyme under the usual assay conditions by determining the dependence of initial rates on ATP concentration. Inhibition data were fit to an equation for competitive inhibition using Kaleidagraph (Synergy Software), or were fit to an equation for competitive tight-binding inhibition using the software KineTic (BioKin, Ltd.).
# Inhibition of CDK2/Cyclin A Retinoblastoma Kinase Activity:
# CDK2 was purified using published methodology (Rosenblatt et al., “Purification and Crystallization of Human Cyclin-dependent Kinase 2,” J. Mol. Biol., vol. 230, 1993, pp. 1317-1319) from insect cells that had been infected with a baculovirus expression vector. […] A complex of CDK2 and proteolyzed cyclin A was prepared and purified by gel filtration. The substrate for this assay was the same Rb substrate fragment used for the CDK4 assays, and the methodology of the CDK2/delta cyclin A and the CDK4/delta cyclin D3 assays was essentially the same, except that CDK2 was present at 10 nM or 19 nM. The duration of the assay was 60 or 75 minutes, during which the time-dependence of product formation was linear and initial rate conditions were met. And, the percent inhibitions of the compounds of Example O through Example R were calculated as described above and shown in Table 2.
# [2] = tested on: HCT-116 cell line; assay: Inhibition of cell growth, tetrazolium salt (MTT) assay; assay type: cell-based; settings: for inhibition at 0.175 µM / IC50 / inhibition at 0.25 µM: Homo sapiens; for inhibition at 0.175 µM: HCT-116, HCT-116 cells, compound at 0.175 uM; for inhibition at 0.175 µM / IC50: MTT; for IC50: HCT-116, 120 h, three to five days, read-out: HCT-116 IC50; for inhibition at 0.25 µM: HCT-116, HCT116 cells, read-out: % Inhibition HCT116 @ 250 nM
# Protocol: Inhibition of Cell Growth: Assessment of Cytotoxicity:
# Inhibition of cell growth was measured using the tetrazolium salt assay, which is based on the ability of viable cells to reduce 3-(4,5-dimethylthiazol-2-yl)-2,5-[2H]-diphenyltetrazolium bromide (MTT) to formazan (Mossman, Journal of Immunological Methods, vol. 65 (1983), pp. 55-58). The water-insoluble purple formazan product was then detected spectrophotometrically. The HCT-116 cell line was used as a representative cancer cell line and grown in 96-well plates. Cells were plated in McCoy's 5A Medium at a volume of 135 μl/well. Plates were incubated for four hours before addition of inhibitor compounds. Different concentrations of inhibitor compounds were added in 0.5% (v/v) dimethylsulfoxide (15 μLuwell), and cells were incubated at 37° C. (5% CO2) for three to five days. At the end of the incubation, MTT was added to a final concentration of 0.2 mg/mL, and cells were incubated for 4 hours more at 37° C. After centrifugation of the plates and removal of medium, the absorbance of the formazan (solubilized in dimethylsulfoxide) was measured at 540 nm. […] All results were compared to control cells treated only with 0.5% (v/v) dimethylsulfoxide.
Structure (SMILES),inhibition at 0.05 µM [1] [%],inhibition at 0.175 µM [2] [%],inhibition at 0.25 µM ([2]; compound at 250 nM) [%],further results
Nc1nc(NC2CCN(S(=O)(=O)CCCNCCN3CCOCC3)CC2)sc1C(=O)c1c(F)cccc1F [Example V10],69,3,–,–
Nc1nc(NC2CCN(S(=O)(=O)CCCNc3ccccn3)CC2)sc1C(=O)c1c(F)cccc1F [Example V2],85,6,–,–
Nc1nc(NC2CCN(S(=O)(=O)CCCNC3CCCNC3=O)CC2)sc1C(=O)c1c(F)cccc1F (stereo not drawn) [Example V162],83,9,–,–
CCc1cccc(NCCCS(=O)(=O)N2CCC(Nc3nc(N)c(C(=O)c4c(F)cccc4F)s3)CC2)n1 [Example V113],79,19,–,–
CCC(O)CNCCCS(=O)(=O)N1CCC(Nc2nc(N)c(C(=O)c3c(F)cccc3F)s2)CC1 (stereo not drawn) [Example V83],79,0,–,–
Cc1nnc(CCNCCCS(=O)(=O)N2CCC(Nc3nc(N)c(C(=O)c4c(F)cccc4F)s3)CC2)o1 [Example V175],78,5,–,–
NC(=O)[C@@H]1CCCN1CCCS(=O)(=O)N1CCC(Nc2nc(N)c(C(=O)c3c(F)cccc3F)s2)CC1 [Example V87],80,3,–,–
Nc1nc(NC2CCN(S(=O)(=O)CCCNCCN3CCCC3)CC2)sc1C(=O)c1c(F)cccc1F [Example V9],78,13,–,–
Nc1nc(NC2CCN(S(=O)(=O)CCCN3CCNC(=O)C3)CC2)sc1C(=O)c1c(F)cccc1F [Example V166],72,3,–,–
COC(=O)[C@@H]1CCCN1CCCS(=O)(=O)N1CCC(Nc2nc(N)c(C(=O)c3c(F)cccc3F)s2)CC1 [Example V139],79,0,–,–
Nc1nc(NC2CCN(S(=O)(=O)CCCNCCO)CC2)sc1C(=O)c1c(F)cccc1F [Example V91],81,13,–,–
"C=C(C)CN(C)CCCS(=O)(=O)N1CCC(Nc2nc(N)c(C(=O)c3c(F)cccc3F)s2)CC1 [Example V177, (4-Amino-2-{[1-({3-[methyl(2-methyl-2-propen-1-yl)amino]propyl}sulfonyl)-4-piperidinyl]amino}-1,3-thiazol-5-yl)(2,6-difluorophenyl)methanone.]",–,–,–,"Ki ([1]; apparent Ki, CDK2/proteolyzed cyclin A, Rb fragment substrate, 25 μM ATP): 17 nM; IC50 ([2]; first HCT-116 column (c4)): 90 nM"
Nc1cccc(CNCCCS(=O)(=O)N2CCC(Nc3nc(N)c(C(=O)c4c(F)cccc4F)s3)CC2)c1 [Example V149],92,0,–,–
CCOC(=O)CCNCCCS(=O)(=O)N1CCC(Nc2nc(N)c(C(=O)c3c(F)cccc3F)s2)CC1 [Example V132],80,20,–,–
NC(=O)C1CCCN(CCCS(=O)(=O)N2CCC(Nc3nc(N)c(C(=O)c4c(F)cccc4F)s3)CC2)C1 (stereo not drawn) [Example V16],80,5,–,–
COC(=O)CN(C)CCCS(=O)(=O)N1CCC(Nc2nc(N)c(C(=O)c3c(F)cccc3F)s2)CC1 [Example V136],76,9,–,–
Nc1nc(NC2CCN(S(=O)(=O)CCCNCCCn3ccnc3)CC2)sc1C(=O)c1c(F)cccc1F [Example V3],84,17,–,–
C#CCN(C)CCCS(=O)(=O)N1CCC(Nc2nc(N)c(C(=O)c3c(F)cccc3F)s2)CC1 [Example V65],79,30,–,–
CC(C)[C@H](CO)NCCCS(=O)(=O)N1CCC(Nc2nc(N)c(C(=O)c3c(F)cccc3F)s2)CC1 [Example V70],89,2,–,–
Nc1nc(NC2CCN(S(=O)(=O)CCCNCC3CCCO3)CC2)sc1C(=O)c1c(F)cccc1F (stereo not drawn) [Example V20],81,9,–,–

Structure (SMILES),inhibition at 0.05 µM [1] [%],inhibition at 0.175 µM [2] [%],inhibition at 0.25 µM ([2]; compound at 250 nM) [%],further results
CC(=O)N1CCN(CCCS(=O)(=O)N2CCC(Nc3nc(N)c(C(=O)c4c(F)cccc4F)s3)CC2)CC1 [Example V29],81,0,–,–
Nc1nc(NC2CCN(S(=O)(=O)CCCN3CCCCC3)CC2)sc1C(=O)c1c(F)cccc1F [Example V55],84,56,–,–
Nc1nc(NC2CCN(S(=O)(=O)CCNCC3CCCCC3)CC2)sc1C(=O)c1c(F)cccc1F [Example S67],–,–,40,–
CCCC(C)NCCS(=O)(=O)N1CCC(Nc2nc(N)c(C(=O)c3c(F)cccc3F)s2)CC1 (stereo not drawn) [Example S93],–,–,33,–
CN(CCS(=O)(=O)N1CCC(Nc2nc(N)c(C(=O)c3c(F)cccc3F)s2)CC1)CC(=O)N(C)C [Example S55],–,–,7,–
Nc1nc(NC2CCN(S(=O)(=O)CCN[C@@H]3CONC3=O)CC2)sc1C(=O)c1c(F)cccc1F [Example S76],–,–,11,–
Nc1nc(NC2CCN(S(=O)(=O)CCNCc3ccc(F)cc3)CC2)sc1C(=O)c1c(F)cccc1F [Example S102],–,–,57,–
CC(=O)N1CCN(CCS(=O)(=O)N2CCC(Nc3nc(N)c(C(=O)c4c(F)cccc4F)s3)CC2)CC1 [Example S52],–,–,18,–
Nc1nc(NC2CCN(S(=O)(=O)CCNCc3ccccc3)CC2)sc1C(=O)c1c(F)cccc1F [Example K48],–,–,–,IC50 ([2]; first HCT-116 column (c4)): 170 nM; IC50 ([2]; second HCT-116 column (c5)): 500 nM
Nc1nc(NC2CCN(S(=O)(=O)CCNCc3c(F)cccc3F)CC2)sc1C(=O)c1c(F)cccc1F [Example S126],–,–,68,–
Nc1nc(NC2CCN(S(=O)(=O)CCNCCO)CC2)sc1C(=O)c1c(F)cccc1F [Example S115],–,–,68,–
Nc1nc(NC2CCN(S(=O)(=O)CCN[C@@H](CO)c3ccccc3)CC2)sc1C(=O)c1c(F)cccc1F [Example S79],–,–,14,–
N#CCNCCS(=O)(=O)N1CCC(Nc2nc(N)c(C(=O)c3c(F)cccc3F)s2)CC1 [Example S128],–,–,–,"% Inhibition HCT116 @ 250 nM ([2]; HCT116 cells, compound at 250 nM, 0.25 µM): 86%"
Nc1nc(NC2CCN(S(=O)(=O)CCNCc3ccco3)CC2)sc1C(=O)c1c(F)cccc1F [Example S72],–,–,19,–
CCN1CCCC1CNCCS(=O)(=O)N1CCC(Nc2nc(N)c(C(=O)c3c(F)cccc3F)s2)CC1 (stereo not drawn) [Example S70],–,–,23,–
"CN(C)CC#Cc1ccc(S(=O)(=O)N2CCC(Nc3nc(N)c(C(=O)c4c(F)cccc4F)s3)CC2)cc1 [Example I9, 1-(4-Amino-2-{1-[4-(3-dimethylamino-prop-1-ynyl)-benzenesulfonyl]-piperidin-4-ylamino}-thiazol-5-yl)-1-(2,6-difluoro-phenyl)-methanone D-Glucuronic Acid Salt]",–,–,–,IC50 ([2]; first HCT-116 column (c4)): 100 nM; IC50 ([2]; second HCT-116 column (c5)): 500 nM
CC1CCN(CCNCCS(=O)(=O)N2CCC(Nc3nc(N)c(C(=O)c4c(F)cccc4F)s3)CC2)CC1 [Example S163],–,–,25,–
COc1cccc(CNCCS(=O)(=O)N2CCC(Nc3nc(N)c(C(=O)c4c(F)cccc4F)s3)CC2)c1 [Example S100],–,–,38,–
CCN(CCS(=O)(=O)N1CCC(Nc2nc(N)c(C(=O)c3c(F)cccc3F)s2)CC1)C1CCCCC1 [Example S10],–,–,62,–
